ChEMBL document CHEMBL1201862, “PubChem BioAssay data set” (2004)
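Dose response: 5 concentrations. Exposure: 48 h. Format: 96-well plates. Endpoint: linear interpolation; highest concentration if not reached. GI50 marks 50% less growth.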 Activity calls are given as the source filed them. Cut-off read from the data, not from the text of the source: active = GI50 up to about 1.1 µM and inactive = higher.

Legend:
Experiment in all cases: growth of human tumour cells (NCI), 48 h
RXF 393 = tested on: RXF 393
K562 = tested on: K562
HL-60 = tested on: HL-60
LOX IMVI = tested on: LOX IMVI
MDA-MB-435 = tested on: MDA-MB-435
SR = tested on: SR
MOLT-4 = tested on: MOLT-4
UACC-62 = tested on: UACC-62
RPMI-8226 = tested on: RPMI-8226
OVCAR-4 = tested on: OVCAR-4
SN12C = tested on: SN12C
MDA-MB-231 = tested on: MDA-MB-231
ACHN = tested on: ACHN
Hs-578T = tested on: Hs-578T
A498 = tested on: A498
U-251 = tested on: U-251
OVCAR-5 = tested on: OVCAR-5
NCI-H226 = tested on: NCI-H226
NCI-H460 = tested on: NCI-H460

| Compound | GI50 (RXF 393) | GI50 (K562) | GI50 (HL-60) | GI50 (LOX IMVI) | GI50 (MDA-MB-435) | GI50 (SR) | GI50 (MOLT-4) | GI50 (UACC-62) | GI50 (RPMI-8226) | GI50 (OVCAR-4) | GI50 (SN12C) | GI50 (MDA-MB-231) | GI50 (ACHN) | GI50 (Hs-578T) | GI50 (A498) | GI50 (U-251) | GI50 (OVCAR-5) | GI50 (NCI-H226) | GI50 (NCI-H460) |
| --- | --- | --- | --- | --- | --- | --- | --- | --- | --- | --- | --- | --- | --- | --- | --- | --- | --- | --- | --- |
| COc1ccc(NC(=O)/C(O)=C/C(=O)c2ccccc2)cc1 | > 10 µM (inactive) | > 10 µM (inactive) | > 10 µM (inactive) | 1.96 µM (inactive) | > 10 µM (inactive) | 1.74 µM (inactive) | 1.95 µM (inactive) | > 10 µM (inactive) | > 10 µM (inactive) | > 10 µM (inactive) | > 10 µM (inactive) | > 10 µM (inactive) | – | – | – | – | – | – | – |
| CC(C)(C)c1ccc2c(c1)C(=O)c1ccccc1C2=O | 26.1 µM (inactive) | 58.1 µM (inactive) | 64.6 µM (inactive) | 41.4 µM (inactive) | 35.9 µM (inactive) | – | 24.6 µM (inactive) | 42 µM (inactive) | 31.3 µM (inactive) | 33.6 µM (inactive) | 85.3 µM (inactive) | > 100 µM (inactive) | 37.9 µM (inactive) | 90.2 µM (inactive) | 41.3 µM (inactive) | 50 µM (inactive) | 82.6 µM (inactive) | 35.5 µM (inactive) | 31.3 µM (inactive) |
| Cc1ccc(-n2c(Cn3nnc(-c4cccnc4)n3)nn(C3OC(COC(=O)c4ccccc4)C(OC(=O)c4ccccc4)C3OC(=O)c3ccccc3)c2=S)cc1 (stereo not drawn) | > 100 µM (inactive) | > 100 µM (inactive) | – | > 100 µM (inactive) | > 100 µM (inactive) | – | > 100 µM (inactive) | > 100 µM (inactive) | > 100 µM (inactive) | > 100 µM (inactive) | > 100 µM (inactive) | > 100 µM (inactive) | > 100 µM (inactive) | > 100 µM (inactive) | – | > 100 µM (inactive) | > 100 µM (inactive) | > 100 µM (inactive) | > 100 µM (inactive) |
| COc1cc(Nc2nnc3n2S(=O)(=O)c2cc(C)c(Cl)cc2S3)cc(OC)c1 | 10.5 µM (inactive) | 13.2 µM (inactive) | 8.69 µM (inactive) | – | 4.28 µM (inactive) | – | 4.29 µM (inactive) | 18.1 µM (inactive) | 2.87 µM (inactive) | 4.3 µM (inactive) | 24.8 µM (inactive) | 19.9 µM (inactive) | 5.21 µM (inactive) | 14.2 µM (inactive) | 19.1 µM (inactive) | 10.9 µM (inactive) | 62.2 µM (inactive) | 16.4 µM (inactive) | 23.8 µM (inactive) |
| CC1(C2COC(=O)C2)SCCCS1 (stereo not drawn) | > 100 µM (inactive) | – | > 100 µM (inactive) | > 100 µM (inactive) | – | > 100 µM (inactive) | > 100 µM (inactive) | > 100 µM (inactive) | – | > 100 µM (inactive) | > 100 µM (inactive) | – | > 100 µM (inactive) | – | – | – | – | > 100 µM (inactive) | > 100 µM (inactive) |
| CC(=O)C1C(=O)C(=O)N(c2ccc(Br)cc2)C1=O (stereo not drawn) | > 100 µM (inactive) | – | > 100 µM (inactive) | > 100 µM (inactive) | > 100 µM (inactive) | – | > 100 µM (inactive) | > 100 µM (inactive) | – | > 100 µM (inactive) | > 100 µM (inactive) | > 100 µM (inactive) | > 100 µM (inactive) | > 100 µM (inactive) | – | > 100 µM (inactive) | > 100 µM (inactive) | > 100 µM (inactive) | > 100 µM (inactive) |
| CC1CCCc2c(CC3CC(=O)NC(=O)C3)nc(N)nc21 (stereo not drawn) | > 100 µM (inactive) | > 100 µM (inactive) | 2.21 µM (inactive) | > 100 µM (inactive) | > 100 µM (inactive) | > 100 µM (inactive) | > 100 µM (inactive) | > 100 µM (inactive) | > 100 µM (inactive) | > 100 µM (inactive) | > 100 µM (inactive) | > 100 µM (inactive) | – | – | > 100 µM (inactive) | > 100 µM (inactive) | > 100 µM (inactive) | > 100 µM (inactive) | – |
| CCOC(=O)c1cn2c(n1)sc1cccc(C)c12 | > 100 µM (inactive) | – | – | > 100 µM (inactive) | – | – | – | > 100 µM (inactive) | – | – | – | > 100 µM (inactive) | > 100 µM (inactive) | 21.7 µM (inactive) | – | – | > 100 µM (inactive) | > 100 µM (inactive) | 71.8 µM (inactive) |
| CC(C)CC(NC(=O)C(CI)Cc1ccccc1)C(=O)Nc1ccccc1 (stereo not drawn) | > 100 µM (inactive) | > 100 µM (inactive) | > 100 µM (inactive) | > 100 µM (inactive) | > 100 µM (inactive) | 68.9 µM (inactive) | > 100 µM (inactive) | > 100 µM (inactive) | > 100 µM (inactive) | 50 µM (inactive) | > 100 µM (inactive) | > 100 µM (inactive) | > 100 µM (inactive) | – | > 100 µM (inactive) | > 100 µM (inactive) | > 100 µM (inactive) | – | > 100 µM (inactive) |
| COc1cc(C2SCCCCCCCCCCSC(c3ccc(O)c(OC)c3)SCCCCCCCCCCS2)ccc1O (stereo not drawn) | > 100 µM (inactive) | > 100 µM (inactive) | – | > 100 µM (inactive) | > 100 µM (inactive) | 56.1 µM (inactive) | 26.3 µM (inactive) | > 100 µM (inactive) | > 100 µM (inactive) | > 100 µM (inactive) | > 100 µM (inactive) | > 100 µM (inactive) | > 100 µM (inactive) | – | > 100 µM (inactive) | > 100 µM (inactive) | > 100 µM (inactive) | > 100 µM (inactive) | – |
| CC(=O)Nc1ccc2c(c1)/C(=N/c1ccc(C(=O)O)cc1)c1ccccc1-2 | > 100 µM (inactive) | 63.1 µM (inactive) | < 0.01 µM (active) | 50.9 µM (inactive) | > 100 µM (inactive) | – | 32.1 µM (inactive) | 91.4 µM (inactive) | 36 µM (inactive) | 41 µM (inactive) | > 100 µM (inactive) | – | > 100 µM (inactive) | 92.7 µM (inactive) | > 100 µM (inactive) | > 100 µM (inactive) | > 100 µM (inactive) | 39.5 µM (inactive) | 44.7 µM (inactive) |
| CC(C)(C)c1cc2c(O)c(c1)COCc1cc(C(C)(C)C)cc(c1O)COCc1cc(C(C)(C)C)cc(c1O)COC2 | 32.4 µM (inactive) | > 100 µM (inactive) | 31.1 µM (inactive) | 29.4 µM (inactive) | > 100 µM (inactive) | > 100 µM (inactive) | 48 µM (inactive) | > 100 µM (inactive) | 50.4 µM (inactive) | > 100 µM (inactive) | – | – | 63.2 µM (inactive) | – | 46.6 µM (inactive) | > 100 µM (inactive) | > 100 µM (inactive) | > 100 µM (inactive) | > 100 µM (inactive) |
| O=c1[nH]c(=O)c2ncn(-c3ccc([N+](=O)[O-])cn3)c2[nH]1 | > 100 µM (inactive) | > 100 µM (inactive) | > 100 µM (inactive) | > 100 µM (inactive) | > 100 µM (inactive) | – | > 100 µM (inactive) | 74.1 µM (inactive) | > 100 µM (inactive) | > 100 µM (inactive) | > 100 µM (inactive) | > 100 µM (inactive) | > 100 µM (inactive) | – | > 100 µM (inactive) | > 100 µM (inactive) | > 100 µM (inactive) | > 100 µM (inactive) | > 100 µM (inactive) |
| CC(C)C[C@H](NC(=O)[C@@H](N)Cc1cccc2ccccc12)B(O)O | < 0.017 µM (active) | – | – | < 0.0179 µM (active) | < 0.0134 µM (active) | < 0.0154 µM (active) | < 0.0177 µM (active) | 0.0482 µM (active) | < 0.0164 µM (active) | 0.232 µM (active) | 0.0426 µM (active) | 0.0354 µM (active) | 0.189 µM (active) | – | < 0.0189 µM (active) | 0.0416 µM (active) | 0.0272 µM (active) | < 0.0132 µM (active) | 0.0695 µM (active) |
| CCOc1nnnc2[nH]cnc12 | > 100 µM (inactive) | – | > 100 µM (inactive) | > 100 µM (inactive) | > 100 µM (inactive) | – | > 100 µM (inactive) | > 100 µM (inactive) | > 100 µM (inactive) | > 100 µM (inactive) | > 100 µM (inactive) | > 100 µM (inactive) | – | > 100 µM (inactive) | > 100 µM (inactive) | > 100 µM (inactive) | > 100 µM (inactive) | > 100 µM (inactive) | > 100 µM (inactive) |
| O=C(Cn1c2ccc(Br)cc2c2nc3ccccc3nc21)NNC(=S)NC1CCCCC1 | 6.89 µM (inactive) | 13.3 µM (inactive) | – | 12.4 µM (inactive) | 13.8 µM (inactive) | – | 10.7 µM (inactive) | 15.6 µM (inactive) | 13.9 µM (inactive) | 12.6 µM (inactive) | 21.3 µM (inactive) | 15.8 µM (inactive) | 16 µM (inactive) | 24.5 µM (inactive) | 16.7 µM (inactive) | 15 µM (inactive) | 19.5 µM (inactive) | 15.4 µM (inactive) | 12.4 µM (inactive) |
| O=C1CSC(c2c[nH]c3ccccc23)N1c1cccc(Cl)c1 (stereo not drawn) | > 100 µM (inactive) | 41 µM (inactive) | 36.6 µM (inactive) | – | 33.6 µM (inactive) | – | 38.5 µM (inactive) | 45.8 µM (inactive) | 25.7 µM (inactive) | 38 µM (inactive) | 52.2 µM (inactive) | 24 µM (inactive) | 24.2 µM (inactive) | 38.4 µM (inactive) | 60.1 µM (inactive) | 37.2 µM (inactive) | 73.8 µM (inactive) | 66.5 µM (inactive) | 37.6 µM (inactive) |
